Experimental data reported in patent publication US12077503B2, “Substituted cyclic amides and their use as herbicides” (FMC CORPORATION, priority 2015, dated 2024).

Legend:
Type in all cases: in vivo
[1] = test system: ryegrass, Italian (Italian ryegrass, Lolium multiflorum); test: Test A preemergence; conditions: Lolium multiflorum, pre-emergence, 240 h, 0 to 100 scale where 0 is no effect and 100 is complete control, read-out: Ryegrass, Italian plant response rating; for pest or weed control at 31 g/ha: 31 g ai/ha, Preemergence; for pest or weed control at 125 g/ha: 125 g ai/ha, preemergence, approx. 10 d
Procedure, shortened: (§1)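 Greenhouse, ~10 d after spray; visual injury vs untreated controls, 0 = no effect, 100 = complete control. Preemergence: directed soil spray over planted seeds. Postemergence: plants 2–10 cm, 1–2 leaf stage. Loam/sand blend. Compound in non-phytotoxic solvent with surfactant.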

[2] = test system: pigweed (Amaranthus retroflexus); test: Test A preemergence; conditions: Amaranthus retroflexus, pre-emergence, 240 h, 0 to 100 scale where 0 is no effect and 100 is complete control, read-out: Pigweed plant response rating; for pest or weed control at 31 g/ha: 31 g ai/ha, Preemergence; for pest or weed control at 125 g/ha: 125 g ai/ha, preemergence, approx. 10 d
Kochia (Kochia scoparia) [3] = test: Test A preemergence; conditions: Bassia scoparia, pre-emergence, 240 h, 0 to 100 scale where 0 is no effect and 100 is complete control, read-out: Kochia plant response rating; for pest or weed control at 31 g/ha: 31 g ai/ha, Preemergence; for pest or weed control at 125 g/ha: 125 g ai/ha, preemergence, approx. 10 d
Procedure, shortened: as §1

[4] = test system: ragweed (common ragweed, Ambrosia elatior); test: Test A preemergence; conditions: Ambrosia artemisiifolia, pre-emergence, 240 h, 0 to 100 scale where 0 is no effect and 100 is complete control, read-out: Ragweed plant response rating; for pest or weed control at 31 g/ha: 31 g ai/ha, Preemergence; for pest or weed control at 125 g/ha: 125 g ai/ha, preemergence, approx. 10 d
Procedure, shortened: as §1

[5] = test system: barnyardgrass (Echinochloa crus-galli); test: Test A preemergence; conditions: Echinochloa crus-galli, pre-emergence, 240 h, 0 to 100 scale where 0 is no effect and 100 is complete control, read-out: Barnyardgrass plant response rating; for pest or weed control at 31 g/ha: 31 g ai/ha, Preemergence; for pest or weed control at 125 g/ha: 125 g ai/ha, preemergence, approx. 10 d
Procedure, shortened: as §1

[6] = test system: giant foxtail (Setaria faberii); test: Test A preemergence; conditions: Setaria faberi, pre-emergence, 240 h, 0 to 100 scale where 0 is no effect and 100 is complete control, read-out: Foxtail, Giant plant response rating; for pest or weed control at 31 g/ha: 31 g ai/ha, Preemergence; for pest or weed control at 125 g/ha: 125 g ai/ha, preemergence, approx. 10 d
Procedure, shortened: as §1

[7] = test system: blackgrass (Alopecurus myosuroides); test: Test A postemergence; conditions: Alopecurus myosuroides, post-emergence, 240 h; for pest or weed control at 125 g/ha: 125 g ai/ha, postemergence, visual injury vs untreated controls after approx. 10 d, 0 = no effect, 100 = complete control, read-out: Blackgrass plant response rating (0 to 100 scale); for pest or weed control at 31 g/ha: Postemergence, 31 g ai/ha, visual injury after approx. 10 d, 0 to 100 scale, 0 no effect, 100 complete control, read-out: Plant response rating, Blackgrass
Procedure, shortened: as §1

[8] = test system: wheat (Triticum aestivum); test: Test A postemergence; conditions: Triticum aestivum, post-emergence, 240 h, 125 g ai/ha, postemergence, visual injury vs untreated controls after approx. 10 d; 0 = no effect, 100 = complete control; read-out: Wheat plant response rating (0 to 100 scale)
Procedure, shortened: as §1

[9] = test system: ryegrass, Italian (Italian ryegrass, Lolium multiflorum); test: Test A postemergence; conditions: Lolium multiflorum, post-emergence, 240 h, 125 g ai/ha, postemergence, visual injury vs untreated controls after approx. 10 d; 0 = no effect, 100 = complete control; read-out: Ryegrass, Italian plant response rating (0 to 100 scale)
Procedure, shortened: as §1

[10] = test system: pigweed (Amaranthus retroflexus); test: Test A postemergence; conditions: Amaranthus retroflexus, post-emergence, 240 h, 125 g ai/ha, postemergence, visual injury vs untreated controls after approx. 10 d; 0 = no effect, 100 = complete control; read-out: Pigweed plant response rating (0 to 100 scale)
Procedure, shortened: as §1

Kochia (Kochia scoparia) [11] = test: Test A postemergence; conditions: Bassia scoparia, post-emergence, 240 h; for pest or weed control at 125 g/ha: 125 g ai/ha, postemergence, visual injury vs untreated controls after approx. 10 d, 0 = no effect, 100 = complete control, read-out: Kochia plant response rating (0 to 100 scale); for pest or weed control at 31 g/ha: Postemergence, 31 g ai/ha, visual injury after approx. 10 d, 0 to 100 scale, 0 no effect, 100 complete control, read-out: Plant response rating, Kochia
Procedure, shortened: as §1

[12] = test system: ragweed (common ragweed, Ambrosia elatior); test: Test A postemergence; conditions: Ambrosia artemisiifolia, post-emergence, 240 h, 125 g ai/ha, postemergence, visual injury vs untreated controls after approx. 10 d; 0 = no effect, 100 = complete control; read-out: Ragweed plant response rating (0 to 100 scale)
Procedure, shortened: as §1

corn (Zea mays) = test: Test A postemergence; conditions: Zea mays, post-emergence, 240 h; for plant injury at 125 g/ha: 125 g ai/ha, postemergence, visual injury vs untreated controls after approx. 10 d, 0 = no effect, 100 = complete control, read-out: Corn plant response rating (0 to 100 scale); for Corn plant response rating (crop injury, 0 = no effect, 100 = complete kill) at 31 g/ha: Postemergence, 31 g ai/ha, visual injury after approx. 10 d, 0 to 100 scale, 100 complete control
Procedure, shortened: as §1

[13] = test system: Galium (catchweed bedstraw, Galium aparine); test: Test A postemergence; conditions: Galium, post-emergence, 240 h; for pest or weed control at 125 g/ha: 125 g ai/ha, postemergence, visual injury vs untreated controls after approx. 10 d, 0 = no effect, 100 = complete control, read-out: Galium plant response rating (0 to 100 scale); for pest or weed control at 31 g/ha: Postemergence, 31 g ai/ha, visual injury after approx. 10 d, 0 to 100 scale, 0 no effect, 100 complete control, read-out: Plant response rating, Galium
Procedure, shortened: as §1

[14] = test system: barnyardgrass (Echinochloa crus-galli); test: Test A postemergence; conditions: Echinochloa crus-galli, post-emergence, 240 h; for pest or weed control at 125 g/ha: 125 g ai/ha, postemergence, visual injury vs untreated controls after approx. 10 d, 0 = no effect, 100 = complete control, read-out: Barnyardgrass plant response rating (0 to 100 scale); for pest or weed control at 31 g/ha: Postemergence, 31 g ai/ha, visual injury after approx. 10 d, 0 to 100 scale, 0 no effect, 100 complete control, read-out: Plant response rating, Barnyardgrass
Procedure, shortened: as §1

[15] = test system: giant foxtail (Setaria faberii); test: Test A postemergence; conditions: Setaria faberi, post-emergence, 240 h; for pest or weed control at 125 g/ha: 125 g ai/ha, postemergence, visual injury vs untreated controls after approx. 10 d, 0 = no effect, 100 = complete control, read-out: Foxtail, Giant plant response rating (0 to 100 scale); for pest or weed control at 31 g/ha: Postemergence, 31 g ai/ha, visual injury after approx. 10 d, 0 to 100 scale, 0 no effect, 100 complete control, read-out: Plant response rating, Foxtail, Giant
Procedure, shortened: as §1

rice (Oryra sativa) = test: Test B flooded paddy test; conditions: Oryza sativa, 250 g ai/ha, Flood; 0 to 100 scale where 0 is no effect and 100 is complete control; read-out: Rice plant response rating
Procedure, shortened: (§2)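 Flooding to 3 cm over soil accompanied treatment, which consisted of adding compound to the standing water around 2-leaf plants; depth was then maintained. Visual assessment versus controls followed at 13 to 15 d (scale 0–100, 0 meaning no effect).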

[16] = test system: ducksalad (Heteranthera limosa); test: Test B flooded paddy test; conditions: Heteranthera limosa, 250 g ai/ha, Flood; 0 to 100 scale where 0 is no effect and 100 is complete control; read-out: Ducksalad plant response rating
Procedure, shortened: as §2

[17] = test system: sedge, umbrella (small-flower umbrella sedge, Cyperus difformis); test: Test B flooded paddy test; conditions: Cyperus difformis, 250 g ai/ha, Flood; 0 to 100 scale where 0 is no effect and 100 is complete control; read-out: Sedge, Umbrella plant response rating
Procedure, shortened: as §2

[18] = test system: barnyardgrass (Echinochloa crus-galli); test: Test B flooded paddy test; conditions: Echinochloa crus-galli, 250 g ai/ha, Flood; 0 to 100 scale where 0 is no effect and 100 is complete control; read-out: Barnyardgrass plant response rating
Procedure, shortened: as §2

Row | SMILES | pest or weed control at 31 g/ha [1] [%] | pest or weed control at 125 g/ha [1] [%] | pest or weed control at 31 g/ha [2] [%] | pest or weed control at 125 g/ha [2] [%] | pest or weed control at 31 g/ha (Kochia (Kochia scoparia) [3]) [%] | pest or weed control at 125 g/ha (Kochia (Kochia scoparia) [3]) [%] | pest or weed control at 31 g/ha [4] [%] | pest or weed control at 125 g/ha [4] [%] | pest or weed control at 31 g/ha [5] [%] | pest or weed control at 125 g/ha [5] [%] | pest or weed control at 31 g/ha [6] [%] | pest or weed control at 125 g/ha [6] [%] | pest or weed control at 125 g/ha [7] [%] | pest or weed control at 31 g/ha [7] [%] | plant injury at 125 g/ha [8] [%] | pest or weed control at 125 g/ha [9] [%] | pest or weed control at 125 g/ha [10] [%] | pest or weed control at 125 g/ha (Kochia (Kochia scoparia) [11]) [%] | pest or weed control at 31 g/ha (Kochia (Kochia scoparia) [11]) [%] | pest or weed control at 125 g/ha [12] [%] | further results
1 | CN1C[C@H](c2ccc(C(F)(F)F)c(O)c2)[C@@H](C(=O)Nc2cccc(F)c2F)C1=O [Compound 1173] | 0 | 30 | 0 | 0 | 0 | 20 | 0 | 40 | 60 | 90 | 30 | 80 | 0 | 0 | 0 | 20 | 50 | 50 | 30 | 10 | plant injury at 125 g/ha (corn (Zea mays)): 0%; Corn plant response rating (crop injury, 0 = no effect, 100 = complete kill) at 31 g/ha (corn (Zea mays)): 0%; pest or weed control at 125 g/ha [13]: 50%; pest or weed control at 31 g/ha [13]: 0%; pest or weed control at 125 g/ha [14]: 70%; pest or weed control at 31 g/ha [14]: 50%; pest or weed control at 125 g/ha [15]: 80%; pest or weed control at 31 g/ha [15]: 70%; pest or weed control at 250 g/ha (rice (Oryra sativa)): 25%; pest or weed control at 250 g/ha [16]: 90%; pest or weed control at 250 g/ha [17]: 0%; pest or weed control at 250 g/ha [18]: 60%
2 | CN1CC[C@H](c2ccc3c(c2)OC(F)(F)O3)[C@@H](C(=O)Nc2cccc(Cl)c2F)C1=O [Compound 1174] | 0 | 40 | 0 | 0 | 0 | 0 | 0 | 0 | 80 | 100 | 80 | 90 | 0 | 0 | 30 | 0 | 0 | 0 | 0 | 0 | plant injury at 125 g/ha (corn (Zea mays)): 50%; Corn plant response rating (crop injury, 0 = no effect, 100 = complete kill) at 31 g/ha (corn (Zea mays)): 0%; pest or weed control at 125 g/ha [13]: 0%; pest or weed control at 31 g/ha [13]: 0%; pest or weed control at 125 g/ha [14]: 70%; pest or weed control at 31 g/ha [14]: 70%; pest or weed control at 125 g/ha [15]: 80%; pest or weed control at 31 g/ha [15]: 40%; pest or weed control at 250 g/ha (rice (Oryra sativa)): 20%; pest or weed control at 250 g/ha [16]: 90%; pest or weed control at 250 g/ha [17]: 0%; pest or weed control at 250 g/ha [18]: 70%
